This note sets out measurements from patent publication US6455248B1, “Reagents and kits for detecting fungal pathogens in a biological sample” (Miami University, priority 1996, dated 2002).

Assay [1] concerns the target T1, α-aminoadipate reductase (AAR) (Candida albicans, UniProt Q12572).
T1 construct: The crude extracts were dialyzed and used as the enzyme source for the AAR activity; endogenous in cells; host or cells: C. albicans cells, dialyzed crude extract
T1 sequence (Q12572 1-1391): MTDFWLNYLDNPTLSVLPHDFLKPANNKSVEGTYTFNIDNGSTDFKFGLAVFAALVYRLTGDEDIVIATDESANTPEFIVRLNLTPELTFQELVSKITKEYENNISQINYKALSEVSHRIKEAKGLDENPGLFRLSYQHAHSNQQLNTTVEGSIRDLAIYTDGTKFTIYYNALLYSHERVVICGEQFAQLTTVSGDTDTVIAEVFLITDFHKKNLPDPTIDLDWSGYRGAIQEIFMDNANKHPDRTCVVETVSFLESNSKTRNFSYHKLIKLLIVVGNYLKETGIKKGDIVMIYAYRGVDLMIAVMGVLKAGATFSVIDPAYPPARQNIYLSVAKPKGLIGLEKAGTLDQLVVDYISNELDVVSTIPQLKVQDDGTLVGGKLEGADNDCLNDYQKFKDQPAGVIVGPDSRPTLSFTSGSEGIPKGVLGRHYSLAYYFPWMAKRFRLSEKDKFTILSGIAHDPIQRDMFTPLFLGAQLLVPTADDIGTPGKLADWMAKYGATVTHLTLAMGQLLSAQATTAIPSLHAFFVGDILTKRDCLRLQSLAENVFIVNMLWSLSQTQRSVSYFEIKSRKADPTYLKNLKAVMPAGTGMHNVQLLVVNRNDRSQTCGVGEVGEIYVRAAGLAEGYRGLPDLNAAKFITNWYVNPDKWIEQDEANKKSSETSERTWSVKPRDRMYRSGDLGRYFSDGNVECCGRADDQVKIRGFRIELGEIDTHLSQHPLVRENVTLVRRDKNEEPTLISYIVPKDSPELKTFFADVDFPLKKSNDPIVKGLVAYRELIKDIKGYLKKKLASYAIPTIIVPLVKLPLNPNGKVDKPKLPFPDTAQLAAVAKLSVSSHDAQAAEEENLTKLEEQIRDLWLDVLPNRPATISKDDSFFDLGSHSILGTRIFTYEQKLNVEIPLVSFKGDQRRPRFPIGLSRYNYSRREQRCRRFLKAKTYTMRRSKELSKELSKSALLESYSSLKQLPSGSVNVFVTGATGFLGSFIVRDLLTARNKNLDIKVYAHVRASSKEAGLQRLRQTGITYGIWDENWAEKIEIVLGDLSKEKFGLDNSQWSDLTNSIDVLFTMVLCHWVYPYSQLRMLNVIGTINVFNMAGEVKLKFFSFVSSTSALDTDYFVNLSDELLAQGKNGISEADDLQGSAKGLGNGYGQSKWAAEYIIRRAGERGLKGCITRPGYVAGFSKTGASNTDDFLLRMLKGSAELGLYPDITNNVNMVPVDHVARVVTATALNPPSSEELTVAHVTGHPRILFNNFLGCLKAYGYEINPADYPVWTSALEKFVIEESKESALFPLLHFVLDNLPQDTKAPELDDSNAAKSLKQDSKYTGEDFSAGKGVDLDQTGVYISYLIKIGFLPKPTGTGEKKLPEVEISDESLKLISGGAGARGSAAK
Kind of assay: Feedback inhibition of aminoadipate reductase activity in dialyzed cell extract. Format: biochemical. As to conditions: for AAR activity: cell extract alone 19.76. How it is done: (§1) Cells were grown in appropriate media at 30° C. with constant shaking and harvested during the late logarithmic phase. Crude enzyme preparations were obtained by disruption of the cells in a Braun homogenizer flask in the case of S. cerevisiae (Sinha and Bhattacharjee 1971), and by vortexing with glass beads for 30 s with 30 s intervals at 4° C. for a total of 5 mins in case of C. albicans. The crude extracts were dialyzed and used as the enzyme source for the AAR activity. The amount of protein in the dialyzed extracts was determined according to the procedure of Bradford (1976).
The AAR activity was assayed using previously described procedure (Sagisaka and Shimura 1962). The reaction mixture consisted of DL aminoadipate, 12.5 mM; ATP, 15 mM; MgCl2, 10 mM; reduced glutathione, 1 mM; α-NADPH (tetra sodium salt), 0.625 mM; and Tris HCl, 250 mM (pH8.0). Dialysed cell extract was added to a final concentration of 0.02-1.0 mg of dialyzed protein. Tubes lacking aminoadipate were used as controls. The reaction mixtures were incubated at 30 ° C. for 1 h and terminated by the addition of Iml of 2% p-dimethylaminobenzaldehyde (PDAB) in 2-methoxyethanol. Activity of AAR was reported in units of A460 h-^1 mg protein-^1.
Feedback inhibition by the end product, lysine, was determined by addition of various concentrations of lysine to the reaction mixture. 50 mM lysine inhibited the AAR activity by 70%. However, when a lysine analog, [S-(2-amino ethyl)] L-Cysteine L-thialysine), was used, 1 mM thialysine was sufficient to abolish 92% of the enzyme activity (Table 5).

In assay [2] the test system is AAR of C. albicans WT 9517 cells. Kind of assay: AAR activity of cells grown in different media. It counts as cell-based. How it is done:
Yeast strains were maintained on yeast extract-peptone-dextrose medium (YEPD). Minimal medium (MM) consisted of 1% dextrose and 0.67% yeast nitrogen base without amino acid. Minimal medium was supplemented with L-lysine (50 μg/ml) where appropriate. Escherichia coli strains were maintained on Luria Bertani medium. Plasmid containing strains were maintained in L-agar containing ampicillin at a concentration of 50 μg/ml.
as §1
The AAR activity was assayed using previously described procedure (Sagisaka and Shimura 1962). […]
The AAR activity of C. albicans WT 9517 cells was determined for cells grown in minimal medium, minimal medium supplemented with lysine, and YEPD. […]

The subject of the next assay is LYS2 mRNA. Kind of assay: Northern blot analysis of LYS2 mRNA. Format: cell-based. The settings on record: C. albicans WT9517 grown in minimal medium supplemented with lysine. As to the method:
Total RNA was isolated from C. albicans WA95 17 cells grown in different media according to the procedure described by Sherman et al. (1986). Total RNA (20 μg/lane) was fractionated by electrophoresis on a 1% agarose gel, transferred to nylon membranes, and hybridized to LYS2 gene and 18 s rDNA radio-labelled probes. The 2.0 kb EcoRI PstI fragment of the LYS2 gene was labelled with [a^32P]DTP by a random primer kit (Gibco BRL) and used as a probe. A plasmid carrying the 18S rDNA was also labeled similarly and used as ribosomal probe. Hybridization was carried out at 60° C. in 0.5 M Sodium phosphate (pH 7.2), 7% SDS, 1% BSA, 1 mM EDTA (pH 8.0). The membrane was washed in 2×SSC and 0.1% SDS at room temperature for 30 min and followed by a wash in 0.5×SSC and 0.1% SDS at 60° C. for 30 min. The membrane was stripped by boiling in 0.1×SSC and 0.1% SDS for 30 min followed by washing with water at 65° C. for 30 min and then reprobed.
To determine if the LYS2 gene expression is controlled at the transcriptional level by lysine and by other amino acids in rich medium, total RNA was extracted from C. albicans WT9517 grown in minimal medium, minimal medium supplemented with lysine, and in YEPD medium. The blot was quantitated using a beta scanner and the AMBIS Image analysis software. […] The LYS2 mRNA level in YEPD grown cells could not be detected. […]

Where [3] appears, read: cell extract + 1 mM inhibitor in reaction mixture.
Setting [4] is: cell extract + 10 mM inhibitor in reaction mixture.

In the case of `NCCCC[C@H](N)C(=O)O` [lysine, L-lysine], the AAR activity amounted to 19.34 A460 h^−1 mg protein^−1 in assay [1] (setting [3]); 9.68 A460 h^−1 mg protein^−1 in assay [1] (setting [4]); 5.92 A460 h^−1 mg protein^−1 in assay [1] (cell extract + 50 mM inhibitor in reaction mixture); 11.87 A460 h^−1 mg protein^−1 in assay [2] (cells grown in minimal medium supplemented with lysine (L-lysine 50 μg/ml), minimal medium alone 19.79). Besides, the inhibition at 50000 µM in assay [1] (read-out: inhibition of AAR activity) turned out to be 70%. Besides, the “repression of AAR activity compared to cells grown in minimal medium” value in assay [2] (cells grown in minimal medium supplemented with lysine) amounted to 40%. Besides, the “level of LYS2 mRNA compared to cells grown in minimal medium” value in the assay on LYS2 mRNA is “significantly lower”.

As for `NCCSC[C@H](N)C(=O)O` [thialysine, [S-(2-amino ethyl)] L-Cysteine], in assay [1] (1 mM in reaction mixture, read-out: inhibition of AAR enzyme activity), the inhibition at 1000 µM was 92%. The AAR activity in assay [1] (setting [3]) was 3.58 A460 h^−1 mg protein^−1; in assay [1] (setting [4]), 1.78 A460 h^−1 mg protein^−1.
